# Results: US20140158233A1, “AEROSOL DELIVERY TO A MICROFLUIDIC DEVICE” (PRESIDENT AND FELLOWS OF HARVARD COLLEGE, priority 2011, published 2014)
# Tested on: human alveolar epithelial cells (A549)
# Assay: Aerosol delivery of a model agent to cells in a lung-on-a-chip (cell uptake, time-course fluorescence images)
# Format: cell-based
# Conditions: 50 micromolar fluorescein sodium in isotonic PBS, nebulized droplets, flow ~20 mL/hr into top channel; confluent A549 monolayer at air interface; images 0-10 min (FIGS. 14A-14D)
# Excerpt: In accordance with some embodiments described herein, an agent can be aerosolized and directed to a microfluidic channel for delivery of the agent to a cell. In some embodiments, the microfluidic channel can be present in a lung-on-a-chip device as described earlier. By way of example only, to evaluate efficacy of aerosol delivery to and/or deposition on a cell using one or more embodiments of the aerosol delivery device described herein, a monolayer of human alveolar epithelial cells (A549) was grown to confluence on the top side of a porous membrane of the lung-on-a-chip, for example, the one described in the International Patent Application WO 2010/009307, the content of which is incorporated herein by reference. In some embodiments, no cells were seeded on the bottom side of the membrane. […] In some embodiments, at least the top channel inlet port 1310 of the lung-on-a-chip 1300 can be modified to include an inertial impactor as described herein. […] The microchannel 142 (in fluid communication with the chamber 150) and the porous membrane 160 can be directly or indirectly connected to the top channel 1320 and the porous membrane 1340 of the lung-on-a-chip 1300. […]
smiles,measurement,value
"O=C1OC2(c3ccc(O)cc3Oc3cc(O)ccc32)c2ccccc21 [fluorescein, fluorescein sodium]",cell uptake of aerosolized fluorescein after deposition on the cells,taken up by the cells
